Target: protein-protein interaction between SOS1 and KRAS G12D (Homo sapiens (Human), UniProt Q07889)
Assay: KRAS::SOS1 AlphaScreen Binding Assay
Description: KRAS::SOS1 AlphaScreen Binding Assay
Low IC50 values are indicative of high potency of the SOS1 inhibitor compound in this assay setting:
Reagents: • GST-tagged SOS1 (564_1049_GST_TEV_ECO) produced in-house • GST-TEV-SOS1 (564-1049) is purchased from Viva Biotech Ltd. • 6×His-Tev-K-RasG12D(1-169)Avi is purchased from Xtal BioStructures, Inc. (Lot # X129-110) • GDP (Sigma Cat No G7127) • AlphaLISA Glutathione Acceptor Beads (PerkinElmer, Cat No AL109) • AlphaScreen Streptavidin Donor Beads (PerkinElmer Cat No 6760002) • Assay plates: Proxiplate-384 PLUS, white (PerkinElmer, Cat No 6008289)
10 nM (final assay concentration) KRAS G12D, 10 μM (final assay concentration) GDP and 5 nM (final assay concentration) GST-SOS1 are mixed in assay buffer prior to use and kept at room temperature.
AlphaLISA Glutathione Acceptor Beads and AlphaScreen Streptavidin Donor Beads are mixed in assay buffer at a concentration of 10 μg/mL (final assay concentration) each prior to use and kept at room temperature.
Compounds are diluted to a final start concentration of 100 μM and are tested in duplicate. Assay-ready plates (ARPs) are generated using an Access Labcyte Workstation with a Labcyte Echo 550 or 555 accoustic dispenser. For compound a start concentration of 100 μM, 150 nL of compound solution is transferred per well in 11 concentrations in duplicate with serial 1:5 dilutions.
The assay is run using a fully automated robotic system in a darkened room below 100 Lux. 10 μL of KRAS::SOS1 GDP mix is added into columns 1-24 to the 150 nL of compound solution (final dilution in the assay 1:100, final DMSO concentration 1%).
After a 30 minute incubation time 5 μL of bead mix is added into columns 1-23. Plates are kept at room temperature in a darkened incubator. After a further 60 minute incubation, the signal is measured using a PerkinElmer Envision HTS Multilabel Reader using the AlphaScreen specifications from PerkinElmer. Each plate contains the following controls: • diluted DMSO+KRAS::SOS1 GDP mix+bead mix • diluted DMSO+KRAS::SOS1 GDP mix
IC50 values are calculated and analyzed using a 4 parametric logistic model.

[1] = KRAS G12D::SOS1 AlphaScreen, measured without EDTA unless marked with an asterisk
[2] = Table 20, KRAS::SOS1 AlphaScreen (SOS1 / KRAS G12D)

protein-protein interaction between SOS1 and KRAS G12D, sequence (Q07889 564-1049, stated change not applied): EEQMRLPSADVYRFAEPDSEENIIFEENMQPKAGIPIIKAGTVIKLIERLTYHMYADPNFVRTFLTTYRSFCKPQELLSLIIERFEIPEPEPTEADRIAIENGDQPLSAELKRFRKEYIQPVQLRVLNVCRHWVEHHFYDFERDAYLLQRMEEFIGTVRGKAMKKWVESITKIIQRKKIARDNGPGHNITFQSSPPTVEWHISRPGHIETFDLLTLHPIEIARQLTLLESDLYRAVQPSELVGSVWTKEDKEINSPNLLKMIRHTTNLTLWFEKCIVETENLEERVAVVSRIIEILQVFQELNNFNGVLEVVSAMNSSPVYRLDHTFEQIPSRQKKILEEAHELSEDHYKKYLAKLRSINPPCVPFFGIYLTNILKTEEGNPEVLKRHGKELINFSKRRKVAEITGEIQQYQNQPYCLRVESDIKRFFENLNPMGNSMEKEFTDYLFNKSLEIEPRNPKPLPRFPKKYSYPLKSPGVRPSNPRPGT

Structure (SMILES)	IC50 [1] [nM]	IC50 [2] [nM]
Cc1nc(N[C@H](C)c2cccc(C(F)(F)F)c2)c2cn(C3(C)CCOC3)c(=O)cc2n1 (stereo partly drawn) [I-111]	9	–
C[C@@H](Nc1ncnc2cc(=O)n(C3(C)CC3)cc12)c1cccc(C(C)(F)F)c1F [I-76]	–	7
Cc1nc(N[C@H](C)c2cccc(C(F)F)c2F)c2cn(C34CCC(CC3)C4)c(=O)cc2n1 [I-19]	–	2
C[C@@H](Nc1ncnc2cc(=O)n(C3(C)CC3)cc12)c1cccc(C(F)F)c1F [I-62]	–	7
Cc1nc(N[C@H](C)c2cccc(C(F)(F)[C@@H]3CCCO3)c2F)c2cn(C3(C)CC3)c(=O)c(F)c2n1 [I-94]	–	5
C[C@@H](Nc1ncnc2cc(=O)n(C34CCC(CC3)C4)cc12)c1cccc2c1CCC2=O [I-109]	6	–
Cc1nc(N[C@H](C)c2cccc(C(F)(F)F)c2F)c2cn([C@@H]3CCOC3)c(=O)cc2n1 [I-33]	–	38
Cc1nc(N[C@H](C)c2cccc(C(F)(F)C3CCCO3)c2)c2cn(C3(C)CC3)c(=O)c(F)c2n1 (stereo partly drawn) [I-92]	–	4
C[C@@H](Nc1ncnc2cc(=O)n(C3(CF)CC3)cc12)c1cccc(C(C)(F)F)c1F [I-77]	–	6
Cc1nc(N[C@H](C)c2cccc(C(F)(F)F)c2)c2cn(C3CCCCC3)c(=O)cc2n1 [I-29]	–	24
Cc1nc(N[C@H](C)c2cccc(C(F)(F)F)c2C)c2cn([C@H]3C[C@@H](O)C3)c(=O)cc2n1 [I-44]	–	12
Cc1nc(N[C@H](C)c2cccc(C(F)(F)F)c2C)c2cn([C@H]3C[C@H](O)C3)c(=O)cc2n1 [I-43]	–	5
Cc1nc(N[C@H](C)c2cccc(C(F)(F)F)c2)c2cn(C3(C)CCOCC3)c(=O)cc2n1 [I-112]	13	–
Cc1nc(N[C@H](C)c2cccc(C(F)F)c2F)c2cn(C34CCC(CC3)CC4)c(=O)cc2n1 [I-120]	6	–
C[C@@H](Nc1ncnc2cc(=O)n(C34CC(C3)C4)cc12)c1cccc(C(F)F)c1F [I-70]	–	7
Cc1nc(N[C@H](C)c2cccc(C(F)(F)F)c2)c2cn(C(C)(C)C)c(=O)cc2n1 [I-110]	25	–
Cc1nc(N[C@H](C)c2cccc3c2CCC3(F)F)c2cn(C34CCN(CC3)C4)c(=O)cc2n1 [I-60]	–	2
Cc1nc(N[C@H](C)c2cccc(C(F)F)c2F)c2cn(C3(CF)CC3)c(=O)cc2n1 [I-2]	–	4
C[C@@H](Nc1ncnc2cc(=O)n(C3(C(F)(F)F)CC3)cc12)c1cccc(C(F)F)c1F [I-65]	–	10
Cc1nc(N[C@H](C)c2cccc(C(F)(F)F)c2)c2cn(C3CC3)c(=O)cc2n1 [I-26]	–	37
Cc1c(=O)n(C2(CF)CC2)cc2c(N[C@H](C)c3cccc(C(C)(F)F)c3F)ncnc12 [I-175]	13	–
Cc1c(=O)n(C2CC23CC3)cc2c(N[C@H](C)c3cccc(C(F)F)c3F)ncnc12 (stereo partly drawn) [I-167]	36	–

Structure (SMILES)	IC50 [1] [nM]	IC50 [2] [nM]
C[C@@H](Nc1ncnc2cc(=O)n(C3CC34CC4)cc12)c1cccc(C(F)F)c1F (stereo partly drawn) [I-66]	–	15
Cc1nc(N[C@H](C)c2cccc(C(F)(F)F)c2C)c2cn(C3(C)CCC3)c(=O)cc2n1 [I-42]	–	9
COCC1(n2cc3c(N[C@H](C)c4cccc(C(F)F)c4F)nc(C)nc3cc2=O)CC1 [I-6]	–	6
Cc1c(=O)n(C2(C(F)(F)F)CC2)cc2c(N[C@H](C)c3cccc(C(F)F)c3F)ncnc12 [I-164]	13	–
Cc1nc(N[C@H](C)c2cccc(C(F)F)c2C)c2cn(C34CCC(C(=O)N(C)C)(CC3)C4)c(=O)cc2n1 [I-24]	–	10
C[C@@H](Nc1ncnc2cc(=O)n(C3(C)CC3)cc12)c1cccc2c1CCC2=O [I-105]	25	–
Cc1nc(N[C@H](C)c2cccc(C(F)F)c2F)c2cn(C34CC(F)(C3)C4)c(=O)cc2n1 [I-16]	–	12
C[C@@H](Nc1ncnc2cc(=O)n(C3(CF)CC3)cc12)c1cccc(C(F)F)c1F [I-63]	–	7
C[C@@H](Nc1ncnc2cc(=O)n(C3(C(F)F)CC3)cc12)c1cccc(C(F)F)c1F [I-64]	–	8
Cc1nc(N[C@H](C)c2cccc(C(F)F)c2F)c2cn([C@@]3(C(F)(F)F)CCOC3)c(=O)cc2n1 [I-118]	20	–
Cc1nc(N[C@H](C)c2cccc(C(F)(F)C3CCCO3)c2)c2cn(C3(C(F)F)CC3)c(=O)c(F)c2n1 (stereo partly drawn) [I-93]	–	3
Cc1nc(N[C@H](C)c2cccc(C(C)(F)F)c2F)c2cn(C34CC(F)(C3)C4)c(=O)cc2n1 [I-56]	–	15
Cc1nc(N[C@H](C)c2cccc(C(F)F)c2F)c2cn(C3(C(F)(F)F)CCOC3)c(=O)cc2n1 (stereo partly drawn) [I-117]	9	–
Cc1nc(N[C@H](C)c2cccc(C(F)(F)F)c2F)c2cn([C@H]3CCOC3)c(=O)cc2n1 [I-34]	–	39
Cc1nc(N[C@H](C)c2cccc(C(F)F)c2F)c2cn(C34CC(C3)C4)c(=O)cc2n1 [I-15]	–	8
Cc1nc(N[C@H](C)c2cccc(C(F)F)c2F)c2cn(C3(c4ccc(F)cc4)CC3)c(=O)cc2n1 [I-9]	–	30
Cc1nc(N[C@H](C)c2cccc(C(F)(F)F)c2C)c2cn(C3CCC3)c(=O)cc2n1 [I-41]	–	14
Cc1nc(N[C@H](C)c2cccc(C(F)(F)F)c2)c2cn(C3CCC(F)(F)CC3)c(=O)cc2n1 [I-30]	–	39
Cc1nc(N[C@H](C)c2cccc(C(F)(F)F)c2)c2cn(C34CCC(CC3)C4)c(=O)cc2n1 [I-115]	10	–
Cc1c(=O)n(C2(CF)CC2)cc2c(N[C@H](C)c3cccc(C(F)F)c3F)ncnc12 [I-162]	7	–
Cc1nc(N[C@H](C)c2cccc(C(F)F)c2F)c2cn(C3(c4ccncc4)CC3)c(=O)cc2n1 [I-7]	–	8
Cc1nc(N[C@H](C)c2cccc(C(F)(F)F)c2F)c2cn(C3(c4ccccc4)CCOCC3)c(=O)cc2n1 [I-36]	–	40

Structure (SMILES)	IC50 [1] [nM]	IC50 [2] [nM]
Cc1nc(N[C@H](C)c2cccc(C(F)(F)F)c2)c2cn(C3CCCC3)c(=O)cc2n1 [I-28]	–	27
Cc1nc(N[C@H](C)c2cccc(C(F)F)c2F)c2cn(C3(C)CCC3)c(=O)cc2n1 [I-11]	–	5
Cc1nc(N[C@H](C)c2cccc(C(F)(F)F)c2)c2cn(C3(C)CCCOC3)c(=O)cc2n1 (stereo partly drawn) [I-113]	39	–
Cc1nc(N[C@H](C)c2cccc3c2CCC3(F)F)c2cn(C34CCN(CC3)C4)c(=O)c(C)c2n1 [I-160]	2	–
Cc1nc(N[C@H](C)c2cccc(C(F)(F)F)c2)c2cn(C3CCOCC3)c(=O)cc2n1 [I-31]	–	11
Cc1nc(N[C@H](C)c2cccc(C(F)(F)[C@@H]3CCCO3)c2F)c2cn(C3(C(F)F)CC3)c(=O)c(F)c2n1 [I-95]	–	5
Cc1nc(N[C@H](C)c2cccc(C(F)(F)F)c2C)c2cn(C3(C)CC(F)(F)C3)c(=O)cc2n1 [I-46]	–	31
Cc1nc(N[C@H](C)c2cccc(C(F)(F)F)c2)c2cn(C3(C)CCN(C)CC3)c(=O)cc2n1 [I-114]	26	–
Cc1nc(N[C@H](C)c2cccc(C(F)F)c2F)c2cn(C3(C)CC3)c(=O)c(C)c2n1 [I-155]	5	–
Cc1nc(N[C@H](C)c2cccc(C(C)(F)F)c2)c2cn(C3(C(F)F)CC3)c(=O)cc2n1 [I-99]	–	7
Cc1nc(N[C@H](C)c2cccc(C(F)(F)F)c2F)c2cn(C3CCOCC3)c(=O)cc2n1 [I-35]	–	9
Cc1nc(N[C@H](C)c2cccc(C(F)F)c2F)c2cn([C@H]3C[C@H](F)C3)c(=O)cc2n1 [I-12]	–	7
Cc1nc(N[C@H](C)c2cccc(C(F)(F)F)c2C)c2cn([C@H]3C[C@@](O)(C(F)(F)F)C3)c(=O)cc2n1 [I-48]	–	27
Cc1nc(N[C@H](C)c2cccc(C(F)F)c2F)c2cn(C3CCOCC3)c(=O)cc2n1 [I-18]	–	5
Cc1nc(N[C@H](C)c2cccc(C(F)F)c2F)c2cn(C34CC(N5CCOCC5)(C3)C4)c(=O)cc2n1 [I-17]	–	5
C[C@@H](Nc1ncnc2cc(=O)n(C3(C(F)(F)F)CCOC3)cc12)c1cccc(C(F)F)c1F (stereo partly drawn) [I-72]	–	11
Cc1nc(N[C@H](C)c2cccc(C(F)F)c2F)c2cn(C3(c4ccccc4)CC3)c(=O)cc2n1 [I-8]	–	16
Cc1nc(N[C@H](C)c2cccc(CC(F)(F)F)c2)c2cn(C3(C(F)F)CC3)c(=O)cc2n1 [I-100]	–	30
Cc1nc(N[C@H](C)c2cccc(C(F)F)c2F)c2cn(C3(C)CC3)c(=O)cc2n1 [I-1]	–	5
Cc1nc(N[C@H](C)c2cccc(C(F)F)c2F)c2cn(C34CCC(O)(CC3)CC4)c(=O)cc2n1 [I-122]	3	–
Cc1c(=O)n(C2(C)CC2)cc2c(N[C@H](C)c3cccc(C(C)(F)F)c3F)ncnc12 [I-174]	9	–
Cc1nc(N[C@H](C)c2cccc(C(F)(F)C(C)(C)O)c2F)c2cn(C34CC(F)(C3)C4)c(=O)c(F)c2n1 [I-91]	–	4
